Key:
wt-CFTR = wt-CFTR (Homo sapiens, UniProt P13569); settings: ATP without genistein; stated for both wt- and ΔF508-CFTR
Experimental: (§1) FIGS. 9A and B are recordings of the effects of genistein on CFTR gating in excised inside-out patches from NIH/3T3-CFTR or NIH/3T3-ΔF508 cells. CFTR channels were activated by 10 μM forskolin +20 nM calyculin A before excision into an inside-out configuration. Presence of calyculin A helps to slow channel dephosphorylation. (A): continuous 14.5 minute recording of a patch containing wt-CFTR. Expanded traces are 22 seconds in length. ATP (500 μM) with or without 20 μM genistein was present as indicated. (B): 2 traces of 44 seconds in length of an excised inside-out patch with CFTR-ΔF508.
(§2) Electrophysiology: CFTR channel currents were recorded at room temperature (~22° C.) with a patch-clamp amplifier (EPC-9, Heka Electronic), filtered at 100 Hz with a built-in three-pole Bessel filter, and stored on videotapes. Data were subsequently refiltered at 25 Hz with an eight-pole Bessel filter (Frequency Device, Havervill, Mass.) and captured onto a hard disk at a sampling rate of 50 Hz. […] Patch-clamp electrodes were made from Corning 7052 glass capillaries (Warner Instrument, Hammed, Conn.). The pipette resistance was usually 3-5 M.OMEGA., and the seal resistance was >20 G.OMEGA.. The pipette solution contained (in mM) 140 N-methyl-D-glucamine chloride (NMDG-C1), 2 MgCl2, 5Ca Cl2, and 10 HEPES (pH 7.4 with NMDG). The superfusion solution contained (in mM) 150 […], 2 MgCl2, 1 EGTA, 5 glucose, and 5 HEPES (pH 7.4 with NaOH). In excised inside-out patch experiments, the bath solution contained (in mM) 130 MNDG-Cl, 10 EGTA, 10 HEPES, 20 tetraethylammonium chloride, 8 Tris, and 2 MgCl2 (pH 7.4 with NMDG). Pipette potential was held at 50 mV relative to the bath. Downward deflections represent channel opening.
(§3) Channels were first activated in cell-attached patches with forskolin plus calyculin A, a membrane-permeant phosphatase inhibitor [Suganuma et al., 1991]. Patches were then excised into an inside-out configuration.

ΔF508-CFTR [1] = biological target: T1, ΔF508-CFTR (Homo sapiens, UniProt P13569, DEL508-508); assay: CFTR gating in excised inside-out patches, NIH/3T3-ΔF508 cells; settings: ATP without genistein; stated for both wt- and ΔF508-CFTR
Experimental: as §1, §2, §3

ΔF508-CFTR [2] = biological target: T1, ΔF508-CFTR; assay: Patch clamp, cell-attached patches, macroscopic current, NIH/3T3-ΔF508 cells; settings: 200 μM CPT-cAMP after 10 μM forskolin
Experimental: FIGS. 3A and B show recordings of the potentiation of wild-type (wt) and ΔF508-CFTR channel activity by genistein. Channels in cell-attached patches from NIH/3T3-CFTR (FIG. 3A) and NIH/3T3-ΔF508cells (FIG. 3B), were stimulated as indicated with 10 μM forskolin and 50μ genestein.
Cell culture: NIH/3T3-CFTR, NIH/3T3-ΔF508, and NIH/3T3 mock cells (generous gifts from Dr. Richard Mulligan of Children's Hospital and Medical Center, Harvard Medical School) were grown as described [Bradbury et al., 1992] at 37° C. and 5% CO2 in Dulbecco's modified Eagle's medium-H21 supplemented with 10% new-born calf serum, 4 mM glutamine, 25 mM glucose, 100 μg/ml penicillin, 100 μg/ml streptomycin, and 50 μg/ml gentamicin. Cells were maintained in T75 flasks, passaged at 90-95% confluency, and split one to four. For measurements of I^- efflux and in vivo phosphorylation, cells were seeded onto 35-mm dishes at […]. For patch-clamp experiments, cells were grown on coverglass chips in 35-mm culture dishes. Media were replaced 24 hours after plating and thereafter every 48 hours. In all cases, media were changed on the day before I^- efflux studies, NIH/3T3-ΔF508 cells were transferred to 27° C. three days before use, and 1 day prior to study, media were supplemented with 5 mM butyrate. For patch-clamp studies, where a constant level of functional ΔF508-CFTR was not essential, NIH/3T3-ΔF508 cells were cultured at 27° C. for 2-6 days before use. Calu-3 cells were grown and maintained as described by Hunter [1995].
as §2, with “In excised inside-out patch experiments, the bath solution contained (in mM) 130 MNDG-Cl, 10 EGTA, 10 HEPES, 20 tetraethylammonium chloride, 8 Tris, and 2 MgCl2 (pH 7.4 with NMDG). Pipette potential was held at 50 mV relative to the bath. Downward deflections represent channel opening.” left out
Statistics: Mean currents and variance were estimated with Igor (Wavemetrics, Lake Oswego, Oreg.). […] Po was calculated from patches containing a single channel by dividing the open channel current amplitude with the mean-current amplitude. […] Calculated values are presented as means±SE. […]

ΔF508-CFTR [3] = biological target: T1, ΔF508-CFTR; assay: Other protein tyrosine kinase inhibitors, activation of ΔF508-CFTR; format: cell-based; set-up: expressed in transfected cells; host or cells: NIH/3T3 cells, stably transfected (NIH/3T3-ΔF508, gift of Dr. Richard Mulligan); settings: for activation of ΔF508-CFTR: methodology of Example 1
CFTR = assay: Other protein tyrosine kinase inhibitors, enhancement of CFTR activity; format: cell-based; settings: methodology of Example 1
Experimental: Based on the results of Example 1 other protein tyrosine kinase inhibitors were tested using the methodology of Example 1.

T1 sequence (P13569 with tags, fused parts or gaps DEL508-508): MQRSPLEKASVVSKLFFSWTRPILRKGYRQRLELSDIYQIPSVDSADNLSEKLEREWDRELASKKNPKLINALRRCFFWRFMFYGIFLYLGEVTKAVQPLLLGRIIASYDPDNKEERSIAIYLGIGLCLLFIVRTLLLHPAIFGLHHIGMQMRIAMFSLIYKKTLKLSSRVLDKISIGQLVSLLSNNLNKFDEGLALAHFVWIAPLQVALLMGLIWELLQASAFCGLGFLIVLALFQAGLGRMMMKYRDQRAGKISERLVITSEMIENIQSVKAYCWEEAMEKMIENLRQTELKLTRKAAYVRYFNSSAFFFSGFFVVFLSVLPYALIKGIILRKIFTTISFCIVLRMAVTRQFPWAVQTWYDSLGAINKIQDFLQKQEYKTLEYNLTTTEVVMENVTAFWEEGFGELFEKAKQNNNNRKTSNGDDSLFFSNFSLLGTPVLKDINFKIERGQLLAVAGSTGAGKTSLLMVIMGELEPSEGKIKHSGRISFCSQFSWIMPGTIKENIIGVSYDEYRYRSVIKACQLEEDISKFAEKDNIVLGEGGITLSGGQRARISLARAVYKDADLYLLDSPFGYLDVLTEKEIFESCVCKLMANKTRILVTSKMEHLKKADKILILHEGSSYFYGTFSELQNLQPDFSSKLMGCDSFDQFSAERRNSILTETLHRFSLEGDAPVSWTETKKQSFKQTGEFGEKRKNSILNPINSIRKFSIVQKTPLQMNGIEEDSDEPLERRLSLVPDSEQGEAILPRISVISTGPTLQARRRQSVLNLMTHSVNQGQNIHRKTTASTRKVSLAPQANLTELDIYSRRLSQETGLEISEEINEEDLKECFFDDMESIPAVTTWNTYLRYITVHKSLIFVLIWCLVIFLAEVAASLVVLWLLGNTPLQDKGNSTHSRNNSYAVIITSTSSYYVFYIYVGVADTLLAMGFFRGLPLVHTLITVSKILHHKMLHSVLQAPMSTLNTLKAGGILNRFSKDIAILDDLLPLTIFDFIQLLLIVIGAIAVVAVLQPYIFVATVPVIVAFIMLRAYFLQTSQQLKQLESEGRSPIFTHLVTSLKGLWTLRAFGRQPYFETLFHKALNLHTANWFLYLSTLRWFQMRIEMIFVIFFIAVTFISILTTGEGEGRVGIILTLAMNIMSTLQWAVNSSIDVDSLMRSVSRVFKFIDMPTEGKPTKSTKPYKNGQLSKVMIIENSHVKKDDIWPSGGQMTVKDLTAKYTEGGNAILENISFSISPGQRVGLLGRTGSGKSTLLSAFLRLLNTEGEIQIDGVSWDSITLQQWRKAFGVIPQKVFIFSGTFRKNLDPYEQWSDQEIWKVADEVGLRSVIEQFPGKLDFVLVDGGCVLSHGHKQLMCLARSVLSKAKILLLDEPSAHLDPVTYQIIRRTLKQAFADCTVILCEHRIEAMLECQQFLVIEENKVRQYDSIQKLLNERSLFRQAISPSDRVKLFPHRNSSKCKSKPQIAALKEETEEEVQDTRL
Sequence of wt-CFTR (P13569 whole entry): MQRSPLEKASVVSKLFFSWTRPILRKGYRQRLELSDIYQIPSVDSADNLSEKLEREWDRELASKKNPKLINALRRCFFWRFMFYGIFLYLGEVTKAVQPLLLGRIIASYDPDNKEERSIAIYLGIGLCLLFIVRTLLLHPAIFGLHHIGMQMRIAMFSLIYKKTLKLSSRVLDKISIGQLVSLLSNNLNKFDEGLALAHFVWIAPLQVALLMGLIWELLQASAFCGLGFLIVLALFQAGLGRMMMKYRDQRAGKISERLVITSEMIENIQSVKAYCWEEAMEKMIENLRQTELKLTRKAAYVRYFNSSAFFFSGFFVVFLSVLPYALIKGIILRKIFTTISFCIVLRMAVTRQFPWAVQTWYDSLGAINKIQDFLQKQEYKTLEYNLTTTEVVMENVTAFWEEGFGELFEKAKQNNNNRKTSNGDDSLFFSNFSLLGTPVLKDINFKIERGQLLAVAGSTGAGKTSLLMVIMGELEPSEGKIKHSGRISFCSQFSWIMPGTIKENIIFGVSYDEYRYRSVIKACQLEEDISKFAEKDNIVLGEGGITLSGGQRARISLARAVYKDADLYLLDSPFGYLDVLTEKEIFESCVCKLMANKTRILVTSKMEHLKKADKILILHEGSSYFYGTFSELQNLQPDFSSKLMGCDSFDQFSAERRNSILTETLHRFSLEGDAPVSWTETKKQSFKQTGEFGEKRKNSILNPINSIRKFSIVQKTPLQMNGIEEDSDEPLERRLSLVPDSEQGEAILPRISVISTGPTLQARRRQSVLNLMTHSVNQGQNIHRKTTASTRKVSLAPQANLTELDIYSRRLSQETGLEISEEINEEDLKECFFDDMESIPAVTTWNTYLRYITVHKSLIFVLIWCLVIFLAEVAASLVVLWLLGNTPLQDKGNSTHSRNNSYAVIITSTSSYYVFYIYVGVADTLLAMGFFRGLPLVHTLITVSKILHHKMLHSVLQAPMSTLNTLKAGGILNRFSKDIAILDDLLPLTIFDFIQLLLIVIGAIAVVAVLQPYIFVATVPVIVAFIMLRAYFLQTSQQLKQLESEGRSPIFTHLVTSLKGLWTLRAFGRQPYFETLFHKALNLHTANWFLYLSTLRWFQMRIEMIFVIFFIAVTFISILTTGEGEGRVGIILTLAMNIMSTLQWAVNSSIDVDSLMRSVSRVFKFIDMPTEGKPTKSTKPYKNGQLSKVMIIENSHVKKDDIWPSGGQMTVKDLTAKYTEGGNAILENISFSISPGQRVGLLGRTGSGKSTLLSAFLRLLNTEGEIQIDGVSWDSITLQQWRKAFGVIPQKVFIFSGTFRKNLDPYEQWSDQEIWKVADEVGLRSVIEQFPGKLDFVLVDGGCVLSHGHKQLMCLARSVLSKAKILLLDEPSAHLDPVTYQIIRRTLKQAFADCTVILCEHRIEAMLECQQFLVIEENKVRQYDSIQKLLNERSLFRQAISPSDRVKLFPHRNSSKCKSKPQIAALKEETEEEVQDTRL

Structure (SMILES)	activation of ΔF508-CFTR (ΔF508-CFTR [3])	other results
Nc1ncnc2c1ncn2[C@@H]1O[C@H](COP(=O)(O)OP(=O)(O)OP(=O)(O)O)[C@@H](O)[C@H]1O [ATP, reference compound]	–	channel open time (wt-CFTR): 302±2 milliseconds; channel open time (ΔF508-CFTR [1]): 302±2 milliseconds
Nc1ncnc2c1nc(Sc1ccc(Cl)cc1)n2[C@@H]1O[C@@H]2COP(=O)(O)O[C@H]2[C@H]1O [CPT-cAMP, 8-(4-chlorophenylthio)-cAMP, reference compound]	–	effect on mean-current amplitude of forskolin-stimulated cells (ΔF508-CFTR [2]): failed to increase the mean-current amplitude
CC(=O)OCOC(c1ccc2ccccc2c1)P(=O)(OCOC(C)=O)OCOC(C)=O (stereo not drawn) [HNMP-A (AM)^3]	failed to activate ΔF508-CFTR	–
Cc1ccc(-c2nn(C(C)(C)C)c3ncnc(N)c23)cc1 [PP1]	failed to activate ΔF508-CFTR	–
CCOc1cc(C=C(C#N)C(N)=O)cc(CSc2ccccc2)c1O [ST638]	failed to activate ΔF508-CFTR	–
Nc1ccc(-c2cc(=O)c3cc(O)ccc3o2)cc1 [aminogenistein, 4'-amino-6-hydroxyflavone]	–	ΔF508-CFTR stimulation activity among protein tyrosine kinase inhibitors (ΔF508-CFTR [3]): is the only protein tyrosine kinase inhibitor that has such an effect
O=c1c(-c2ccc(O)cc2)coc2cc(O)ccc12 [daidzein]	failed to activate ΔF508-CFTR	–
COc1c(C=O)c(O)cc2c1C(=O)c1ccccc1C2=O [damnacanthal]	failed to activate ΔF508-CFTR	–
Cc1cc(O)c2c(c1)C(=O)c1cc(O)cc(O)c1C2=O [emodin]	failed to activate ΔF508-CFTR	–
COC(=O)/C=C/c1cc(O)ccc1O [erbstatin analogue]	failed to activate ΔF508-CFTR	–
COC1=C2C[C@@H](C)C[C@H](OC)[C@H](O)[C@@H](C)/C=C(\C)[C@H](OC(N)=O)[C@@H](OC)/C=C\C=C(/C)C(=O)NC(=CC1=O)C2=O [geldanamycin]	failed to activate ΔF508-CFTR	–
COC1C=CC=C(C)C(=O)NC2=CC(=O)C=C(C2=O)C(OC)C(C)CC(OC)C(OC)C(C)C=C(C)C1OC(N)=O (stereo not drawn) [herbimycin A]	failed to activate ΔF508-CFTR	–
O=C(O)c1cc(N(Cc2ccccc2O)Cc2cc(O)ccc2O)ccc1O [lavendustin A]	failed to activate ΔF508-CFTR	–
O=C(O)c1cc(N(Cc2ccccc2O)Cc2ccccc2O)ccc1O [lavendustin B]	failed to activate ΔF508-CFTR	–
COC(=O)c1cc(NCc2cc(O)ccc2O)ccc1O [lavendustin C methyl ester]	failed to activate ΔF508-CFTR	–
Oc1cc(O)cc(/C=C/c2ccc(O)c(O)c2)c1 [piceatannol]	failed to activate ΔF508-CFTR	–
O=c1c(O)c(-c2ccc(O)c(O)c2)oc2cc(O)cc(O)c12 [quercetin]	–	enhancement of CFTR activity (CFTR): failed to enhance CFTR activity
